The values below come from patent US5670482A, “Neuropeptide Y antagonists” (Glaxo Wellcome Inc., priority 1992, dated 1997).

The structures appear in SMILES notation. pIC50: −log10 of the molar value. Positions of bridges follow the written chain, without caps; N, C: chain ends. Non-standard residues stand in square brackets, D forms with d. Residues, ends and D or L forms follow the SMILES beside them. Chains are numbered I, II in the order given. *: point of attachment. Dap = NC[C@H](N)C(=O)O; X1 = Clc1cccc(Cl)c1C*; Aib = CC(C)(N)C(=O)O

Assay [1] deals with NPY receptors in rat brain membranes. As to the kind of experiment: Radioreceptor binding assay (3H-NPY, rat brain membranes). The note with it: 37° C. How it is done: Rat brain membranes were incubated with ^3 H-NPY up to equilibrium at 37° C. in the presence of several peptides at different concentrations and in a final volume of 1 ml. Non-specific binding was determined by adding 100 nM of cold NPY. At the end of the incubation period the samples were either filtered (GF/C filter), or 0.5 ml of cold incubation buffer was added and the tubes centrifuged at 15,000 g for 10 min. The supernatant was discarded and the pellet or filters resuspended and counted by liquid scintillation. Results were processed using a computer programme that calculated IC50, Kd, Bmax and Hill coefficient by linear regression. IC50 results where available are shown in column (a) of the Table.

The test system of assay [2] is Human erythroleukemic (HEL) cells. As to the kind of experiment: Intracellular calcium measurements in HEL cells (Fura-2). The format is cell-based. The note with it: for HEL CELLS % Fluor (c): agonistic activity: fluorescence induced by 100 nM of the peptide; for pIC50: antagonism of 5 nM NPY-induced calcium signal, read-out: HEL CELLS IC50 (d); for HEL CELLS % INHIB (b): inhibition of increase in HEL cell intracellular calcium induced by 5 nM NPY, 100 nM compound. How it is done: Human erythroleukemic (HEL) cells were loaded with Fura-2 (1 μM for 1 h), washed and then placed in a cuvette (5×10^5 cells in 2.5 ml) and excited simultaneously at 340 and 380 nm in a SLM spectrofluorometer. Fluorescence changes after the addition of NPY and/or peptide analogs were followed by recording emission at 510 nm. Calcium concentrations can be determined through a computer programme by using the ratio of fluorescence 340/380 nm. The agonistic activity of peptide analogs was tested by recording the fluorescence induced upon stimulation of the cells with 100 nM of the peptide and the antagonistic activity by observing the decrease in fluorescence induced by 5 nM NPY in the presence of the analog The results where available are indicated in column (c) of the Table.
The inhibition of the increase in the HEL cell intracellular calcium (induced by 5 nM NPY) achieved by 100 nM concentrations of each compound is shown in column (b) of the Table.
(Calcium flux is commonly read through the fluorescence of an indicator in the cells.)

Usually pIC50 stands for the IC50 on a negative log10 scale, so that one unit is a factor of ten. In turn, `CC[C@H](C)[C@H](N)C(=O)N[C@@H](CC(N)=O)C(=O)N1CCC[C@H]1C(=O)N[C@H](C(=O)N[C@@H](Cc1ccc(O)cc1)C(=O)N[C@@H](CCCNC(=N)N)C(=O)N[C@@H](CC(C)C)C(=O)N[C@@H](CCCNC(=N)N)C(=O)N[C@@H](Cc1ccc(O)cc1)C(N)=O)[C@@H](C)OC` [Example 2, IleAsnPro(O-MethylThr)TyrArgLeuArgTyr-NH2] (H-INPT(Me)YRLRY-NH2) gave a pIC50 in assay [1] of 6.55. Moreover, in assay [2], the “HEL CELLS % Fluor (c)” value turned out to be 0%, the pIC50 is 8.30 and the “HEL CELLS % INHIB (b)” value worked out at 100%.
The like results for `CC[C@H](C)[C@H](N)C(=O)N[C@@H](CC(N)=O)C(=O)N1CCC[C@H]1C(=O)NC(C)(C)C(=O)N[C@@H](Cc1ccc(OCc2c(Cl)cccc2Cl)cc1)C(=O)N[C@@H](CCCNC(=N)N)C(=O)N[C@@H](CC(C)C)C(=O)N[C@@H](CCCNC(=N)N)C(=O)N[C@@H](Cc1ccc(O)cc1)C(N)=O` [Example 3, IleAsnProAib[O-(2,6-Dichlorobenzyl)Tyr]ArgLeuArgTyr-NH2] (H-INP[Aib]Y(X1)RLRY-NH2; N-terminus assumed) were, in that order, 6.46, 0%, 8.10 and 100%.
The like results for `CC[C@H](C)[C@H](N)C(=O)N[C@H]1CC(=O)NC[C@@H](C(=O)N[C@@H](Cc2ccc(O)cc2)C(=O)N[C@@H](CCCNC(=N)N)C(=O)N[C@@H](CC(C)C)C(=O)N[C@@H](CCCNC(=N)N)C(=O)N[C@@H](Cc2ccc(O)cc2)C(N)=O)NC(=O)[C@@H]2CCCN2C(=O)[C@@H](NC(=O)[C@@H](N)[C@@H](C)CC)CC(=O)NC[C@@H](C(=O)N[C@@H](Cc2ccc(O)cc2)C(=O)N[C@@H](CCCNC(=N)N)C(=O)N[C@@H](CC(C)C)C(=O)N[C@@H](CCCNC(=N)N)C(=O)N[C@@H](Cc2ccc(O)cc2)C(N)=O)NC(=O)[C@@H]2CCCN2C1=O` [Example 7, IleAspProDprTyrArgLeuArgTyr-NH2,Cyclic(2,4'),(2',4)-Diamide] (I: H-IDP[Dap]YRLRY-NH2 / II: H-IDP[Dap]YRLRY-NH2; amide I:2-II:4, I:4-II:2; N-terminus assumed) were, in that order, 7.82, 0%, 8.82 and 100%.
In turn, `CC[C@H](C)[C@H](N)C(=O)N[C@H]1CNC(=O)C[C@@H](C(=O)N[C@@H](Cc2ccc(O)cc2)C(=O)N[C@@H](CCCNC(=N)N)C(=O)N[C@@H](CC(C)C)C(=O)N[C@@H](CCCNC(=N)N)C(=O)N[C@@H](Cc2ccc(O)cc2)C(N)=O)NC(=O)[C@@H]2CCCN2C(=O)[C@@H](NC(=O)[C@@H](N)[C@@H](C)CC)CNC(=O)C[C@@H](C(=O)N[C@@H](Cc2ccc(O)cc2)C(=O)N[C@@H](CCCNC(=N)N)C(=O)N[C@@H](CC(C)C)C(=O)N[C@@H](CCCNC(=N)N)C(=O)N[C@@H](Cc2ccc(O)cc2)C(N)=O)NC(=O)[C@@H]2CCCN2C1=O` [Example 8, IleDprProAspTyrArgLeuArgTyr-NH2,Cyclic(2,4'),(2',4)-Diamide] (I: H-I[Dap]PDYRLRY-NH2 / II: H-I[Dap]PDYRLRY-NH2; amide I:2-II:4, I:4-II:2; N-terminus assumed) showed a pIC50 in assay [1] of 8.12. In assay [2], the “HEL CELLS % Fluor (c)” value came to 0%, the pIC50 was 8.60 and the “HEL CELLS % INHIB (b)” value came to 100%.
